Test results as given in patent publication US20040006070A1, “Intraspinal continuous infusion of midazolam hydrochloride for the treatment of pain” (priority 2002, published 2004).
Counter-ions that a name gives are not always drawn.

Columns and labels:
[1] = Toxicity in neuropathic pain sheep: clinical signs, necropsy, histopathology; assay type: in vivo
Source text: Animals will be observed daily for any signs of clinical toxicity such as limping and loss of appetite. At necropsy the spinal cord will be examined for any gross changes. Histopathologic evaluation will be performed on all animals after drug studies are complete. These examinations will detect any neurotoxicity that may be present due to the spinal infusion of midazolam.

[2] = system: neuropathic pain model in the sheep; assay: Neuropathic pain model in sheep, mechanical stimulus device; assay type: in vivo; details: for Mechanical Stimulus device: sheep Rowdy #819
Source text: The neuropathic pain model in the sheep is created by placing four tight ligatures around the median, radial, or ulnar nerve (or a combination thereof) with 0-chromic gut suture. This method produces a chronic painful peripheral mononeuropathy which may be related to those conditions seen in humans with causalgia and reflex sympathetic dystrophy. To date, the onset of neuropathic pain has occurred 1 to 9 days postoperatively, as evidenced by the display of painful behavior such as hyperalgesia, not bearing weight or holding the operated leg off the ground. The duration of the painful behavior lasted 16 to 62 days. […] It has been difficult to identify a segment of the median nerve that is consistently appropriate to achieve the neuropathic pain behavior. The inventors are continuing to test different segments of the median nerve and other mixed sensory/motor nerves to consistently produce this behavior. Of the five animals that developed neuropathic pain, three were treated with intrathecal morphine or midazolam as single agents.
In the sheep with neuropathic pain treated by midazolam alone, intrathecal administration of midazolam was initiated at 3 to 5 mg/day and the dose was escalated to up to 15 mg/day. […] This analgesia was documented using a mechanical stimulus device and/or behavior monitoring. The mechanical stimulus device measures pressure applied to a blunt pin against the foreleg. The pressure at which the animal lifts its leg in response to the painful stimulus is documented. In the sheep monitored by this device, administration of intrathecal midazolam allowed endurance of up to 18 Newtons of pressure (cut off to prevent tissue damage was set at 19.99 N) compared to the baseline (pretreatment) pressure endured of 9.59 N.
A mechanical stimulus device as described in Example 6, and/or behavior monitoring as described in Example 5 is used to test analgesic effect in the neuropathic pain model. To compare the effects of midazolam using the mechanical stimulus device, the data were accumulated over the testing period, and all response latencies were expressed as percentage of the maximum possible effect (MPE) where: [formula]
This test will be conducted prior to initiation of midazolam infusion and again on days 1, 3, 7, 15, 22, 29, 36, 43 during infusion. The mechanical stimulus device has been developed and validated (Nolan et al. 1987; Kyles et al., 1995) for pain testing in the sheep model.

[3] = Toxicity of continuous intrathecal infusion in acute pain sheep: clinical symptoms, necropsy, histology; assay type: in vivo
Procedure: The inventors have completed a toxicity and efficacy study of intrathecal midazolam hydrochloride in 15 sheep instrumented with Medtronic SynchroMed® infusion systems. The surgical procedure and the hardware used in these animals was analogous to that utilized in humans. The first sheep was tested for toxicity only (3 mg/day), and all subsequent animals tested for both toxicity and analgesic activity.
Open-label (known dose) trial: A trial with known midazolam doses was performed in the first 7 sheep. Animals were administered 3 mg/day (N=1), 5 mg/day (N=1), 10 mg/day (N=1), and 15 mg/day (N=4) for 43 days. These doses were chosen based upon previous intrathecal bolus dose studies in rats and humans, with conversion of from species to species based on cerebral spinal fluid (CSF) production rate and total CSF volume. Analgesic activity was assessed using a mechanical stimulus device which produces a stimulus of acute pain by application of force via a blunt needle applied to the shaved front foreleg of the animal. Force is applied with increasing pressure until the animal lifts its leg in response to the painful stimulus. To evaluate the analgesic effect of midazolam, response latencies were expressed as a percentage of the maximum possible effect, % MPE. The response latency is defined as follows: [formula]
On day 43 after venous blood samples were taken, animals were euthanized (Beuthanasia 1 ml/4.5 kg IV bolus injection). CSF samples were obtained for analysis (1-2 ml drawn from L-7/S-1 after a laminectomy was performed to expose the dura) of glucose, total protein, and cell differential.

[4] = rat, single or multiple intrathecal bolus doses for 20 days; cited from earlier work
[5] = double blinded sheep Chicken Hawk #87, 5 mg/day, 43 days
[6] = double blinded sheep Elmer Fudd #437, 5 mg/day, 43 days
[7] = double blinded sheep Leghorn II #815, 15 mg/day, 43 days
[8] = double blinded sheep Petunia #439, 15 mg/day, 43 days
[9] = double blinded sheep Porky #402, 5 mg/day, 43 days
[10] = double blinded sheep Roadrunner #84, 15 mg/day, 43 days
[11] = open label sheep Dot #85, 15 mg/day, 43 days
[12] = open label sheep Wacko #83, 15 mg/day, 43 days
[13] = open label sheep Yacko #91, 15 mg/day, 43 days

## Cc1ncc2n1-c1ccc(Cl)cc1C(c1ccccc1F)=NC2 [Midazolam, midazolam hydrochloride]
[1]; intrathecal up to 5 mg/day
  tolerability: tolerated well
[1]; sheep #980 Dudley
  necropsy, spinal cord lesions: did not exhibit any spinal cord lesions
[2]; Sheep #819, cut off 19.99 N, baseline (pretreatment) 9.59 N
  pressure endured (mechanical stimulus device): up to 18 Newtons
[2]; neuropathic pain sheep, midazolam alone, 3 to 5 mg/day escalated up to 15 mg/day intrathecal
  analgesia: significant analgesia
[2]; 10 mg
  Mechanical Stimulus device: 13.7N
[2]; 15 mg
  Mechanical Stimulus device: 7.0N
[3]; any sheep receiving midazolam alone in the acute pain sheep study
  inflammatory lesions: no significant inflammatory lesions were observed
[3]; closed label sheep, continuous infusion 5 or 15 mg/day
  behavioral, toxicological, or histopathologic changes related to the infusion: did not produce any behavioral, toxicological, or histopathologic changes
[3]; [5]
  Histology: mild catheter reaction
  Necropsy: no gross lesions noted
[3]; [6]
  Histology: mild catheter reaction
  Necropsy: no gross lesions noted
[3]; [7]
  Histology: mild catheter reaction
  Necropsy: No obvious lesions where detected
[3]; [8]
  Histology: mild catheter reaction
  Necropsy: no gross lesions noted
[3]; [9]
  Histology: mild catheter reaction
  Necropsy: no gross lesions noted
[3]; [10]
  Histology: mild catheter reaction
  Necropsy: no gross lesions noted
[3]; open label sheep #457 Tazz, 15 mg/day, 43 days
  clinical symptoms: No clinical symptoms
[3]; open label sheep #498 Toad, 10 mg/day, 43 days
  clinical symptoms: No clinical symptoms
[3]; open label sheep #518 Sandy, 5 mg/day, 43 days
  clinical symptoms: No clinical symptoms
[3]; [11]
  Histology: mild catheter reaction
  Necropsy: no gross lesions noted
[3]; [12]
  Histology: mild catheter reaction
  Necropsy: no gross lesions noted
[3]; [13]
  Histology: mild catheter reaction
  Necropsy: no gross lesions noted
[3]; open label sheep, continuous infusion 3-15 mg/day, 43 days
  behavioral, toxicological, or histopathologic changes related to the infusion: did not produce any behavioral, toxicological, or histopathologic changes
[4]
  neurotoxicity: neurotoxicity
